Reference: patent US11021481B2, “Substituted isoindolin-1-ones and 2,3-dihydro-1h-pyrrolo[3,4-c]pyridin-1-ones as HPK1 antagonists” (Nimbus Saturn, Inc., priority 2019, dated 2021)
Where a name gives a salt, the structure may show the parent alone.

Molecular target: HPK1 (Homo sapiens (Human), UniProt Q92918)
Assay: HPK1 biochemical enzyme assay (microfluidic mobility shift assay)
Conditions: 1.5 nM HPK1, ATP 1 mM final, 30 min preincubation, 60 min at RT, Caliper EZ Reader; read-out: HPK1 1000UMATP caliper IC50
Method in brief: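 Ten-point compound titrations (top 3 μM final) preincubated 30 min with HPK1 and substrate, then reaction started with 1 mM ATP and 1 μM substrate, 5 mM MgCl2. After 60 min at RT, reaction terminated and product measured by microfluidic mobility shift.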

Chain of HPK1 (Q92918 whole entry): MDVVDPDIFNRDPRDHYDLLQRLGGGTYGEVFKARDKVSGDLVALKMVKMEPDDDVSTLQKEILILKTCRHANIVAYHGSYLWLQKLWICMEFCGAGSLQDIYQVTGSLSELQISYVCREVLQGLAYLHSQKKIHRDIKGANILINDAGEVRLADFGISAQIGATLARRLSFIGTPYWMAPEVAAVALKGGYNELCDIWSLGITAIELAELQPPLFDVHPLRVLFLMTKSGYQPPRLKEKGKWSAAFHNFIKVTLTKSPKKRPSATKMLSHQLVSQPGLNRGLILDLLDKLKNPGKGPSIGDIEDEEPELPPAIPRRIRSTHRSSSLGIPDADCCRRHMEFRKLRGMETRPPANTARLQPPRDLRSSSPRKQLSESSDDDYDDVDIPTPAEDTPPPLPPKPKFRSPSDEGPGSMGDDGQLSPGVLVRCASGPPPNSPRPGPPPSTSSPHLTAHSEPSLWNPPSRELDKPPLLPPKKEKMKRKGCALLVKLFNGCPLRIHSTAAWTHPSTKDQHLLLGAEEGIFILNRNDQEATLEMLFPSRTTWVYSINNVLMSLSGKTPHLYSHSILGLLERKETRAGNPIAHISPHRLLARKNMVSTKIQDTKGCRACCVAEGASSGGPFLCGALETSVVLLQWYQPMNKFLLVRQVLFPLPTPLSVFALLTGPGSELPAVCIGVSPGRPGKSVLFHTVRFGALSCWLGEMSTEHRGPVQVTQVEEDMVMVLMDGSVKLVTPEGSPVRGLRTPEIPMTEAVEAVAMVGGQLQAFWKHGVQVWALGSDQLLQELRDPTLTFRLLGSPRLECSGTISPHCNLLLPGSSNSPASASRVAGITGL

Compound	IC50 [nM]
Cc1cnn2c(-c3ccc(Nc4ccc(N5CCC(O)CC5)cn4)c4c3CNC4=O)cnc2c1 [I-184, 7-[[5-(4-hydroxy-1-piperidyl)-2-pyripyl]amino]-4-(7-methylimidazo [1,2-b]pyridazin-3-yl)isoindolin-1-one]	< 100
COCC1CN(c2ccc(Nc3ccc(-c4cnc5cc(F)ccn45)c4c3C(=O)NC4)nc2CN(C)C)CCO1 (stereo in doubt) [I-712, (S)-7-((6-((dimethylamino)-methyl)-5-(2-(methoxymeth-yl)morpho-lino)pyridin-2-yl)amino)-4-(7-fluoroimidazo [1,2-a]pyridin-3-yl)isoindolin-1-one]	< 100
CN(C)CCOc1ccn2c(-c3ccc(Nc4ccc(N5CCC(F)C(O)C5)cn4)c4c3CNC4=O)cnc2c1 (stereo not drawn) [I-249]	100 to 1000
O=C1NCc2c(-c3cnc4cnccn34)ccc(Nc3ccc(S(=O)(=O)N4CCC4)cn3)c21 [I-307, 7-((5-(azetidin-1-ylsulfonyl)-pyridin-2-yl)amino)-4-(imidazo[1,2-a]pyrazin-3-yl)isoindolin-1-one]	100 to 1000
Cc1ccn2c(-c3ccc(Nc4ccc(CN5CCN(C)CC5)cn4)c4c3CNC4=O)cnc2c1F [I-605, 4-(8-fluoro-7-methylimidazo [1,2-a]pyridin-3-yl)-7-((5-((4-methylpiperazin-1-yl)methyl)pyri-din-2-yl)amino)isoin-dolin-1-one]	< 100
Cn1ccc2c(-c3ccc(Nc4ccc(N5CCC(O)CC5)cn4)c4c3CNC4=O)cccc21 [I-161, 7-[[5-(4-hydroxy-1-piperidyl)-2-pyridyl]amino]-4-(1-methylindol-4-yl)isoindolin-1-one]	< 100
C[C@H](c1ccc(Nc2ccc(-c3cnc4cc(F)ccn34)c3c2C(=O)NC3)nc1)N1CCO[C@@H](C)C1 [I-523, 4-(7-fluoroimidazo [1,2-a]pyridin-3-yl)-7-((5-((R)-1-((S)-2-methylmorpho-lino)ethyl)pyr-idin-2-yl)amino) isoin-dolin-1-one]	< 100
Cn1ccc2c(-c3ccc(-n4ccc(N5CCC(O)CC5)n4)c4c3CNC4=O)ccnc21 [I-308, 7-(3-(4-hydroxypiper-idin-1-yl)-1H-pyrazol-1-yl)-4-(1-methyl-1H-pyrrolo[2,3-b)pyridin-4-yl)isoindolin-1-one]	> 1000
CN1CCN(c2ccc(Nc3ccc(-c4cnc5[nH]ccc5c4)c4c3C(=O)NC4)nc2)CC1 [I-45, 7-[[5-(4-methylpiperazin-1-yl)-2-pyridyl]amino]-4-(1H-pyrrolo[2,3-b]pyridin-5-yl)isoindolin-1-one]	< 100
O=C1NCc2c(-c3cnc4cc(Cl)ccn34)ccc(Nc3ccc(N4CCOCC(O)C4)cn3)c21 (stereo in doubt) [I-596, (R)-4-(7-chloroimidazo [1,2-a]pyridin-3-yl)-7-((5-(6-hydroxy-1.4-oxazepan-4-yl)pyridin-2-yl)amino)isoin-dolin-1-one]	< 100
CN(C)Cc1nc(Nc2ccc(-c3cnc4cc(F)ccn34)c3c2C(=O)NC3)ccc1[C@@H]1CCCO1 [I-560, (S)-7-((6-((dimethylamino)-methyl)-5-(tetrahydrofuran-2-yl)pyridin-2-yl)amino)-4-(7-fluoroimidazo [1,2-a]pyridin-3-yl)isoindolin-1-one]	< 100
CN1CCN(CC2(O)CCN(c3ccc(Nc4ccc(-c5cnc6cc(F)ccn56)c5c4C(=O)NC5)nc3)CC2)CC1 [I-365, 4-(7-fluoroimidazo [1,2-a]pyridin-3-yl)-7-((5-(4-hydroxy-4-((4-methylpiperazin-1-yl)methyl)pip-eridin-1-yl)pyridin-2-yl)amino)isoin-dolin-1-one]	< 100
Cc1ncc2c(-c3ccc(Nc4ccc(N5CCC(O)CC5)cn4)c4c3CNC4=O)cccn12 [I-180, 7-[[5-(4-hydroxy-1-piperidyl)-2-pyridyl]amino]-4-(3-methyliminidazo [1.5-a]pyridin-8-yl)isoindolin-1-one]	100 to 1000
CN(C)Cc1nc(Nc2ccc(-c3cnc4cc(F)ccn34)c3c2C(=O)NC3)ccc1N1CCOC[C@H](O)C1 (single isomer, unassigned) [I-819]	< 100
CN(C)Cc1nc(Nc2ccc(-c3cnc4cc(C(F)F)ccn34)c3c2C(=O)NC3)ccc1C1CCOC1 (stereo in doubt) [I-753, (R)-4-(7-(difluoromethyl)-imidazo[1,2-a]pyridin-3-yl)-7-((6-((dimethylamino)-methyl)-5-(tetrahydrofuran-3-yl)pyridin-2-yl)amino)isoin-dolin-1-one]	< 100
CCNC(=O)c1ccc(Nc2ccc(-c3ccnc4c3ccn4C)c3c2C(=O)NC3)nc1 [I-109, N-ethyl-6-[[7-(1-methylpyrrolo [2,3-b]pyridin-4-yl)-3-oxo-isoindolin-4-yl]amino]pyridine-3-carboxamide]	< 100
CN(C)Cc1nc(Nc2ccc(-c3cnc4cc(F)ccn34)c3c2C(=O)NC3)ccc1[C@]1(O)CCOC1 [I-803, (R)-7-((6-((dimethylamino)-methyl)-5-(3-hydroxytetra-hydrofuran-3-yl)pyridin-2-yl)amino)-4-(7-fluoroimidazo [1,2-a]pyridin-3-yl)isoindolin-1-one]	< 100

Compound	IC50 [nM]
CN(C)Cc1cc(C2CCCO2)cc(Nc2ccc(-c3cnc4cc(F)ccn34)c3c2C(=O)NC3)n1 (stereo not drawn) [I-852, 7-((6-((dimethylamino)-methyl)-4-(tetrahydrofuran-2-yl)pyridin-2-yl)amino)-4-(7-fluoroimidazo [1,2-a]pyridin-3-yl)isoindolin-1-one Formate salt]	< 100
Cc1ccn2c(-c3ccc(Nc4ccc([C@H]5CCOC5)cn4)c4c3CNC4=O)cnc2c1 [I-191, (R)-4-(7-methylimidazo [1,2-a]pyridin-3-yl)-7-((5-(tetrahydro-furan-3-yl)pyridin-2-yl)amino)isoin-dolin-1-one]	< 100
CN(C)[C@H]1CCCc2ccc(Nc3ccc(-c4cnc5cc(F)ccn45)c4c3C(=O)NC4)nc21 [I-841, (S)-7-((8-(dimethylam-ino)-5,6.7,8-tetrahydroquin-olin-2-yl)amino)-4-(7-fluoroimidazo [1,2-a]pyridin-3-yl)isoindolin-1-one]	100 to 1000
C[C@@H]1C[C@H](O)CCN1c1ccc(Nc2ccc(-c3cnc4cnccn34)c3c2C(=O)NC3)nc1 [I-350, 7-((5-((2R,4R]-4-hydroxy-2-methylpiperidin-1-yl)pyridin-2-yl)amino)-4-(imidazo[1,2-a]pyrazin-3-yl)isoindolin-1-one]	< 100
CN(C)Cc1nc(Nc2ccc(-c3cnc4cc(F)ccn34)c3c2C(=O)NC3)ccc1[C@@]1(O)CCOC1 [I-804, (S)-7-((6-((dimethylamino)-methyl)-5-(3-hydroxytetra-hydrofuran-3-yl)pyridin-2-yl)amino)-4-(7-fluoroimidazo [1,2-a]pyridin-3-yl)isoindolin-1-one]	< 100
O=C1NCc2c(-c3cnc4cc(F)ccn34)ccc(Nc3ccc([C@H]4CCOC4)c(CN4CC(F)C4)n3)c21 [I-762, (R)-7-((6-((3-fluoroazetidin-1-yl)methyl)-5-(tetrahydrofuran-3-yl)pyridin-2-yl)amino)-4-(7-fluoroimidazo [1,2-a]pyridin-3-yl)isoindolin-1-one]	< 100
Cn1ccc2c(-c3ccc(Nc4ccc(S(C)(=O)=O)cn4)c4c3CNC4=O)ccnc21 [I-106, 4-(1-methylpyrrolo [2,3-b]pyridin-4-yl)-7-[(5-methylsulfonyl-2-pyridyl)amino] isoindolin-1-one]	< 100
7-[[6- [(dimethylamino)- methyl]-5- tetrahydrofuran- 3-yl-2- pyridyl]amino]- 4-(7- methylimidazo [1,2-a]pyrimidin-3- yl)isoindolin- 1-one [I-846]	< 100
CC(C)([C@@H]1CN(c2ccc(Nc3ccc(-c4cnc5cc(F)ccn45)c4c3C(=O)NC4)nc2)CCO1)N1CC(O)C1 [I-697, (S)-4-(7-fluoroimidazo [1,2-a]pyridin-3-yl)-7-((5-(2-(2-(3-hydroxyazetidin-1-yl)propan-2-yl)morpholino)pyridin-2-yl)amino)isoin-dolin-1-one]	< 100
Cn1ccc2c(-c3ccc(Nc4ccc(N5CCC[C@@H](C(C)(C)O)C5)cn4)c4c3CNC4=O)ccnc21 (single isomer, unassigned) [I-281]	< 100
O=C1NCc2c(-c3cnc4cc(F)ccn34)ccc(Nc3ccc([C@H]4CCOC4)cn3)c21 [I-218, (R)-4-(7-fluoroimidazo [1,2-a]pyridin-3-yl)-7-((5-(tetrahydrofuran-3-yl)pyridin-2-yl)amino)isoin-dolin-1-one]	< 100
O=C1NCc2c(-c3cnc4cc(F)ccn34)ccc(Nc3ccc([C@@H]4CCOC4)c(CN4CCC[C@@H]4CO)n3)c21 [I-826, 4-(7-fluoroimidazo [1,2-a]pyridin-3-yl)-7-((6-(((R)-2-(hydroxymeth-yl)pyrrolidin-1-yl)methyl)-5-((S)-THF-3-yl)pyridin-2-yl)amino)isoin-dolin-1-one]	< 100
Cn1ccc2c(-c3ccc(Nc4cc(C5CCNCC5)n[nH]4)c4c3CNC4=O)ccnc21 [I-115, 4-(1-methylpyrrolo [2,3-b]pyridin-4-yl)-7-[[3-(4-piperidyl)-1H-pyrazol-5-yl]amino]isoin-dolin-1-one]	< 100
O=C1NCc2c(-c3cnc4cc(F)ccn34)ccc(Nc3ccc(N4CCC(C(=O)O)CC4)cn3)c21 [I-203, l-[6-[[7-(7-fluoroimidazo [1,2-a]pyridin-3-yl)-3-oxo-isoindolin-4-yl]amino]-3-pyridyl]piper-idine-4-carboxylic acid]	< 100
O=C1NCc2c(-c3cnc4cc(F)ccn34)ccc(Nc3ccc([C@@H]4CCOC4)c(CN4CC[C@H](O)C4)n3)c21 [I-779, 4-(7-fluoroimidazo[1,2-a]pyridin-3-yl)-7-((6-(((S)-3-hydroxypyrrolidin-1-yl)methyl)-5-((S)-tetrahydrofuran-3-yl)pyridin-2-yl)amino)isoindolin-1-one]	< 100
O=C1NCc2c(-c3cnc4cc(F)ccn34)ccc(Nc3ccc(S(=O)(=O)CC4CCC4)cn3)c21 [I-321, 7-((5-((cyclobutyl-methyl)sulfonyl)pyridin-2-yl)amino)-4-(7-fluoroimidazo [1,2-a]pyridin-3-yl)isoindolin-1-one]	< 100
